Reference: patent US9260408B2, “Dihydroquinoline-2-one derivatives” (Hoffmann-La Roche Inc., priority 2011, dated 2016)

Key:
human CYP11B2 = target: T1, human CYP11B2 (Homo sapiens, UniProt P19099); test: G-402 cellular enzyme assay, human CYP11B2 (aldosterone release, HTRF); format: cell-based; conditions: G-402 cells expressing human CYP11B2; 1 μM Deoxycorticosterone
T1 construct: expressed in transfected cells
T1 sequence (P19099 25-503): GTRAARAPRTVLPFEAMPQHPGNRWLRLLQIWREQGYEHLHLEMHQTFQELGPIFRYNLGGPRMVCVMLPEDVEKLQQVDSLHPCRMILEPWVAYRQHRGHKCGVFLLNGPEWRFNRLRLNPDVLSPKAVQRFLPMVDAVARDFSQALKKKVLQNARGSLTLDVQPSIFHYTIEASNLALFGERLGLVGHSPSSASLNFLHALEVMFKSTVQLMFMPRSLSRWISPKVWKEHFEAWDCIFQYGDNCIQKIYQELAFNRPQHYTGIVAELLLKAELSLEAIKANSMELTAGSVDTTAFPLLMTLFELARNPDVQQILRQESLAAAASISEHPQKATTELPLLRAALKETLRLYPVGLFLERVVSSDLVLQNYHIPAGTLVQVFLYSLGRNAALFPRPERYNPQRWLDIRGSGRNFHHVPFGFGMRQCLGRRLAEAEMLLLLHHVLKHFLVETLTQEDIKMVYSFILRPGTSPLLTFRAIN
Source text: (§1) Herein we identified the use of the G-402 cell line as a host cell to ectopically express (transiently or stably) enzymes of the CYP11 family. Specifically we developed stable G-402 cells expressing ectopically human CYP11B1, human CYP11B2, human CYP11A1, cynomolgus CYP11B1 or cynomolgus CYP11B2 enzyme activity. Importantly the identified cell line G-402 expresses co-factors (adrenodoxin and adrenodoxin reductase) important for the activity of the CYP11 family and no relevant enzyme activity of the CYP11 family (in comparison to H295R cells) was detected in these cells. Therefore the G-402 cell line is uniquely suited as a host cell for the ectopic expression of enzymes from the CYP11 family.
(§2) G-402 cells can be obtained from ATCC(CRL-1440) and were originally derived from a renal leiomyoblastoma.
(§3) The expression plasmids contains the ORF for either human/cyno CYP11B1 or CYP11B2 under the control of a suitable promoter (CMV-promoter) and a suitable resistance marker (neomycin). Using standard techniques the expression plasmid is transfected into G-402 cells and these cells are then selected for expressing the given resistance markers. Individual cell-clones are then selected and assessed for displaying the desired enzymatic activity using 11-Deoxycorticosterone (Cyp11B2) or 11-Deoxycortisol (Cyp11B1) as a substrate.
(§4) G-402 cells expressing CYP11 constructs were established as described above and maintained in McCoy's 5a Medium Modified, ATCC Catalog No. 30-2007 containing 10% FCS and 400 μg/ml G418 (Geneticin) at 37° C. under an atmosphere of 5% CO2/95% air. Cellular enzyme assays were performed in DMEM/F12 medium containing 2.5% charcoal treated FCS and appropriate concentration of substrate (0.3-10 uM 11-Deoxycorticosterone, 11-Deoxycortisol or Corticosterone). For assaying enzymatic activity, cells were plated onto 96 well plates and incubated for 16 h. An aliquot of the supernatant is then transferred and analyzed for the concentration of the expected product (Aldosterone for CYP11B2; Cortisol for CYP11B1). The concentrations of these steroids can be determined using HTRF assays from CisBio analyzing either Aldosterone or Cortisol.
(§5) Inhibition of the release of produced steroids can be used as a measure of the respective enzyme inhibition by test compounds added during the cellular enzyme assay. The dose dependent inhibition of enzymatic activity by a compound is calculated by means of plotting added inhibitor concentrations (x-axes) vs. measured steroid/product level (y-axes). The inhibition is then calculated by fitting the following 4-parameter sigmoidal function (Morgan-Mercer-Flodin (MMF) model) to the raw data points using the least squares method:
(§6) [formula] wherein, A is the maximum y value, B is the EC50 factor determined using XLFit, C is the minimum y value and D is the slope value.
(§7) EC50 values for compounds claimed herein were tested with the G402-based assay system described. Cyp11B2 enzyme activity was tested in presence of 1 μM Deoxycorticosterone and variable amounts of inhibitors; Cyp11B1 enzyme activity was tested in presence of 1 μM Deoxycortisol and variable amounts of inhibitors.

human CYP11B1 = target: T2, human CYP11B1 (Homo sapiens, UniProt P15538); test: G-402 cellular enzyme assay, human CYP11B1 (cortisol release, HTRF); format: cell-based; conditions: G-402 cells expressing human CYP11B1; 1 μM Deoxycortisol
T2 construct: expressed in transfected cells
T2 sequence (P15538 25-503): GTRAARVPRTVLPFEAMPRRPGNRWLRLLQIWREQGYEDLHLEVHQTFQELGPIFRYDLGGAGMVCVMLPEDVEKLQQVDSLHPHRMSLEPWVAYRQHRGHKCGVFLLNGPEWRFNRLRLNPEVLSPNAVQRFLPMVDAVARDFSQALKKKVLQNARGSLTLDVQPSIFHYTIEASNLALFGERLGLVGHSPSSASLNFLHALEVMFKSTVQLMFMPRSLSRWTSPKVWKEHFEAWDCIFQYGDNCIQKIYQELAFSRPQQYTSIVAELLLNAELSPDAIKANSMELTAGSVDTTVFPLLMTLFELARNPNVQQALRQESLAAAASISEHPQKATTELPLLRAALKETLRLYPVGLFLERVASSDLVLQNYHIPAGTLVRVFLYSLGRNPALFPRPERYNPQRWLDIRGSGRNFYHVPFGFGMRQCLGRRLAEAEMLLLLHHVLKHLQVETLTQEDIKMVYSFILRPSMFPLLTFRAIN
Source text: as §1, §2, §3, §4, §5, §6, §7

EC50 (human CYP11B2) | EC50 (human CYP11B1) | Compound
54 nM | 623 nM | CCC(=O)NC(C)c1cncc(-c2ccc3c(c2)CCC(=O)N3C)c1C (single isomer, unassigned) [Example 266, N-{(R or S)-1-[4-Methyl-5-(1-methyl-2-oxo-1,2,3,4-tetrahydro-quinolin-6-yl)-pyridin-3-yl]-ethyl}-propionamide]
170 nM | 3700 nM | CCS(=O)(=O)Nc1cncc(-c2ccc3c(c2)CCC(=O)N3C)c1 [Example 1, Ethanesulfonic acid [5-(1-methyl-2-oxo-1,2,3,4-tetrahydro-quinolin-6-yl)-pyridin-3-yl]-amide]
430 nM | > 3000 nM | CC(=O)OCC(=O)Nc1cncc(-c2ccc3c(c2)CCC(=O)N3C)c1 [Example 2, Acetic acid [5-(1-methyl-2-oxo-1,2,3,4-tetrahydro-quinolin-6-yl)-pyridin-3-ylcarbamoyl]-methyl ester]
715 nM | > 3000 nM | CN1C(=O)CCc2cc(-c3cncc(NC(=O)CO)c3)ccc21 [Example 3, 2-Hydroxy-N-[5-(1-methyl-2-oxo-1,2,3,4-tetrahydro-quinolin-6-yl)-pyridin-3-yl]-acetamide]
11 nM | 350 nM | CN1C(=O)CCc2cc(-c3cncc(NCCO)c3)ccc21 [Example 4, 6-[5-(2-Hydroxy-ethylamino)-pyridin-3-yl]-1-methyl-3,4-dihydro-1H-quinolin-2-one]
19 nM | 1080 nM | CN1C(=O)CCc2cc(-c3cncc(N4CCC[C@H]4CO)c3)ccc21 [Example 5, 6-[5-((S)-2-Hydroxymethyl-pyrrolidin-1-yl)-pyridin-3-yl]-1-methyl-3,4-dihydro-1H-quinolin-2-one]
98 nM | 3340 nM | CN1C(=O)CCc2cc(-c3cncc(N4CCC[C@@H]4CO)c3)ccc21 [Example 6, 6-[5-((R)-2-Hydroxymethyl-pyrrolidin-1-yl)-pyridin-3-yl]-1-methyl-3,4-dihydro-1H-quinolin-2-one]
56 nM | 570 nM | CN1C(=O)CCc2cc(-c3cncc(CN4CCC[C@H]4CO)c3)ccc21 [Example 7, 6-[5-((S)-2-Hydroxymethyl-pyrrolidin-1-ylmethyl)-pyridin-3-yl]-1-methyl-3,4-dihydro-1H-quinolin-2-one]
49 nM | 2330 nM | CN1C(=O)CCc2cc(-c3cncc(CN4C(=O)CC[C@H]4CO)c3)ccc21 [Example 8, 6-[5-((S)-2-Hydroxymethyl-5-oxo-pyrrolidin-1-ylmethyl)-pyridin-3-yl]-1-methyl-3,4-dihydro-1H-quinolin-2-one]
829 nM | > 10000 nM | CCNC[C@@H]1CCCN1c1cncc(-c2ccc3c(c2)CCC(=O)N3C)c1 [Example 9, 6-[5-((S)-2-Ethylaminomethyl-pyrrolidin-1-yl)-pyridin-3-yl]-1-methyl-3,4-dihydro-1H-quinolin-2-one]
20 nM | 170 nM | COC[C@@H]1CCCN1c1cncc(-c2ccc3c(c2)CCC(=O)N3C)c1 [Example 10, 6-[5-((S)-2-Methoxymethyl-pyrrolidin-1-yl)-pyridin-3-yl]-1-methyl-3,4-dihydro-1H-quinolin-2-one]
76 nM | 410 nM | CN1C(=O)CCc2cc(-c3cncc(N4CCC[C@H]4Cn4cncn4)c3)ccc21 [Example 11]
2 nM | 50 nM | CN1C(=O)CCc2cc(-c3cncc(NCc4ccccc4)c3)ccc21 [Example 12]
319 nM | 17900 nM | CN1C(=O)CCc2cc(-c3cncc(N4C(=O)CC[C@H]4CO)c3)ccc21 [Example 13]
308 nM | 1570 nM | CN1C(=O)CCc2cc(-c3cncc(N4CCCC4=O)c3)ccc21 [Example 14]
19 nM | 1200 nM | CCS(=O)(=O)NCc1cncc(-c2ccc3c(c2)CCC(=O)N3C)c1 [Example 15]

EC50 (human CYP11B2) | EC50 (human CYP11B1) | Compound
11 nM | 860 nM | CCS(=O)(=O)NCc1cncc(-c2cc3c(cc2F)N(C)C(=O)CC3)c1 [Example 16, ethanesulfonic acid [5-(7-fluoro-1-methyl-2-oxo-1,2,3,4-tetrahydro-quinolin-6-yl)-pyridin-3-ylmethyl]-amide]
4650 nM | > 10000 nM | CCS(=O)(=O)NCc1cncc(-c2ccc3c(c2)C(C)(C)CC(=O)N3C)c1 [Example 17]
58 nM | 750 nM | CN1C(=O)CCc2cc(-c3cncc(CN4CCCC4=O)c3)ccc21 [Example 18]
23 nM | 800 nM | CN1C(=O)CCc2cc(-c3cncc(CN4CCCCC4=O)c3)ccc21 [Example 19]
3 nM | 20 nM | CN1C(=O)CCc2cc(-c3cncc(CN4CCS(=O)(=O)CC4)c3)ccc21 [Example 20]
21 nM | 260 nM | COC[C@@H]1CCCN1Cc1cncc(-c2ccc3c(c2)CCC(=O)N3C)c1 [Example 21]
25 nM | 100 nM | COC(=O)[C@@H]1CCCN1Cc1cncc(-c2ccc3c(c2)CCC(=O)N3C)c1 [Example 22]
32 nM | 390 nM | CN1C(=O)CCc2cc(-c3cncc(CN4CCC[C@H]4COCC(F)(F)F)c3)ccc21 [Example 23]
7 nM | 220 nM | CN1C(=O)CCc2cc(-c3cncc(NCCO)n3)ccc21 [Example 24]
5 nM | 110 nM | CN1C(=O)CCc2cc(-c3cncc(NCc4ccccc4)n3)ccc21 [Example 25]
18 nM | 570 nM | CN1C(=O)CCc2cc(-c3cncc(NCCO)n3)c(F)cc21 [Example 26]
7 nM | 270 nM | CN1C(=O)CCc2cc(-c3cncc(NCc4ccccc4)n3)c(F)cc21 [Example 27]
121 nM | 780 nM | CN1C(=O)CCc2cc(-c3cncc(N4CC5(CN(C(=O)OC(C)(C)C)C5)C4)n3)ccc21 [Example 28, 6-[6-(1-methyl-2-oxo-1,2,3,4-tetrahydro-quinolin-6-yl)-pyrazin-2-yl]-2,6-diaza-spiro[3.3]heptane-2-carboxylic acid tert-butyl ester]
260 nM | 5560 nM | CN1C(=O)CCc2cc(-c3cncc(N4CC5(CN(C(=O)OC(C)(C)C)C5)C4)c3)ccc21 [Example 29]
170 nM | 10200 nM | CC(C)[C@H](CO)Nc1cncc(-c2ccc3c(c2)CCC(=O)N3C)c1 [Example 30, 6-[5-((R)-1-Hydroxymethyl-2-methyl-propylamino)-pyridin-3-yl]-1-methyl-3,4-dihydro-1H-quinolin-2-one]
